# ± gives the standard deviation of the averaged measurements.
# Tests used:
# [1] = compound: O=c1[nH]cc(F)c(=O)[nH]1 [FLUOROURACIL]; assay: surviving fraction relative to DMSO-only wells; higher = less growth inhibition; conditions: exposure time: 5 days
# How it was run: (§1)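 Inhibitors were tested at 0.5, 1, 5, 10, 50, 100, 500 and 1000 nM, applied continuously for five days beginning 24 hours after log-phase tumour cells were seeded at 250–500 per well in 384-well plates. CellTiter-Glo luminescence served as the viability measure, expressed as surviving fraction against the median of DMSO-only wells. Each line, screened three times, was kept only with replicate Pearson r >0.7 and median Z' >0.3.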
# [2] = compound: CN(C)CC[C@H](CSc1ccccc1)Nc1ccc(S(=O)(=O)NC(=O)c2ccc(N3CCN(Cc4ccccc4-c4ccc(Cl)cc4)CC3)cc2)cc1[N+](=O)[O-] [ABT-737]; assay: as above; conditions: exposure time: 5 days
# How it was run: as §1
Test System,surviving fraction ([1]; 0.5 nM),surviving fraction ([1]; 1 nM),surviving fraction ([1]; 5 nM),surviving fraction ([1]; 10 nM),surviving fraction ([1]; 50 nM),surviving fraction ([1]; 100 nM),surviving fraction ([1]; 500 nM),surviving fraction ([1]; 1000 nM),surviving fraction ([2]; 0.5 nM),surviving fraction ([2]; 1 nM),surviving fraction ([2]; 5 nM),surviving fraction ([2]; 10 nM),surviving fraction ([2]; 50 nM),surviving fraction ([2]; 100 nM),surviving fraction ([2]; 500 nM),surviving fraction ([2]; 1000 nM)
MDAMB436 BREAST,0.937 ± 0.046,0.921 ± 0.063,0.964 ± 0.12,0.846 ± 0.11,0.84 ± 0.12,0.815 ± 0.029,0.722 ± 0.031,0.625 ± 0.013,0.985 ± 0.085,1.09 ± 0.041,1.05 ± 0.14,0.972 ± 0.16,0.998 ± 0.1,1.14 ± 0.31,0.961 ± 0.17,0.962 ± 0.083
MDAMB453 BREAST,1.01 ± 0.092,1.01 ± 0.13,1.06 ± 0.11,0.987 ± 0.079,0.979 ± 0.035,0.968 ± 0.016,0.795 ± 0.026,0.706 ± 0.009,1.07 ± 0.046,1.08 ± 0.083,1.1 ± 0.047,1.13 ± 0.067,1.09 ± 0.036,1.1 ± 0.055,1.07 ± 0.057,1 ± 0.047
MDAMB468 BREAST,0.887 ± 0.039,0.885 ± 0.095,0.919 ± 0.064,0.89 ± 0.058,0.881 ± 0.12,0.816 ± 0.06,0.859 ± 0.076,0.706 ± 0.097,1.14 ± 0.06,1.08 ± 0.018,1.08 ± 0.037,1.11 ± 0.066,1.1 ± 0.045,1.11 ± 0.11,1.08 ± 0.03,1.09 ± 0.12
MFM223 BREAST,1.14 ± 0.21,1.12 ± 0.17,1.18 ± 0.22,1.096 ± 0.0076,0.719 ± 0.014,0.772 ± 0.062,0.738 ± 0.036,0.667 ± 0.032,1.39 ± 0.39,1.4 ± 0.37,1.36 ± 0.35,1.52 ± 0.56,1.08 ± 0.091,1.05 ± 0.14,1.05 ± 0.082,1.2 ± 0.054
MG63 BONE,1.02 ± 0.041,1 ± 0.028,1.05 ± 0.021,1.03 ± 0.019,1.06 ± 0.024,0.99 ± 0.023,0.947 ± 0.024,0.805 ± 0.013,1.08 ± 0.034,1.07 ± 0.024,1.12 ± 0.047,1.1 ± 0.05,1.11 ± 0.033,1.09 ± 0.058,1.07 ± 0.016,1.06 ± 0.04
MHM BONE,1.04 ± 0.07,1.02 ± 0.028,1.06 ± 0.047,1.04 ± 0.039,1.084 ± 0.0067,–,1.063 ± 0.0092,0.974 ± 0.034,1.03 ± 0.053,1.08 ± 0.062,1.07 ± 0.045,1.1 ± 0.046,1.07 ± 0.034,1.15 ± 0.013,1.09 ± 0.015,1.12 ± 0.015
NCIH441 LUNG,1.08 ± 0.054,1.05 ± 0.076,1.06 ± 0.11,1.1 ± 0.021,0.996 ± 0.16,0.95 ± 0.18,0.998 ± 0.1,0.798 ± 0.11,1.19 ± 0.027,1.22 ± 0.05,1.115 ± 0.0076,1.11 ± 0.052,1.11 ± 0.045,1.12 ± 0.077,1.11 ± 0.086,1.06 ± 0.15
NOS1 BONE,1.01 ± 0.032,1.01 ± 0.14,1.09 ± 0.12,1.14 ± 0.11,0.91 ± 0.12,0.943 ± 0.073,0.799 ± 0.065,0.694 ± 0.081,1.07 ± 0.093,1.05 ± 0.085,1.32 ± 0.035,1.14 ± 0.048,1.19 ± 0.092,1.14 ± 0.048,1.09 ± 0.081,1.11 ± 0.17
NY BONE,0.98 ± 0.029,0.923 ± 0.032,1.03 ± 0.034,1.01 ± 0.028,1.07 ± 0.02,0.993 ± 0.018,0.934 ± 0.025,0.821 ± 0.014,0.986 ± 0.029,1.02 ± 0.032,1.09 ± 0.064,1.09 ± 0.03,1.07 ± 0.012,1.071 ± 0.0072,0.99 ± 0.017,0.957 ± 0.035
OS25HAL BONE,1 ± 0.062,1.01 ± 0.056,0.985 ± 0.019,0.977 ± 0.014,1.05 ± 0.082,1.15 ± 0.014,0.939 ± 0.032,0.808 ± 0.032,0.984 ± 0.048,1.07 ± 0.035,0.975 ± 0.028,1.02 ± 0.025,1.06 ± 0.082,1.12 ± 0.042,0.983 ± 0.045,0.882 ± 0.076
OSHN BONE,1.01 ± 0.014,0.972 ± 0.029,1.061 ± 0.007,1.001 ± 0.0042,1.007 ± 0.0011,0.9777 ± 0.0071,0.989 ± 0.014,0.875 ± 0.029,1.09 ± 0.026,1.1 ± 0.018,1.08 ± 0.014,1.09 ± 0.014,1.11 ± 0.028,1.11 ± 0.022,1.02 ± 0.049,0.998 ± 0.035
PCI30 HEADNECK,0.934 ± 0.056,1.06 ± 0.029,1.08 ± 0.058,1.1 ± 0.058,0.97 ± 0.067,0.981 ± 0.082,0.959 ± 0.06,0.931 ± 0.034,1.12 ± 0.029,1.09 ± 0.061,1.09 ± 0.096,1.07 ± 0.026,1.08 ± 0.023,1.13 ± 0.11,0.919 ± 0.091,0.909 ± 0.022
RDES SOFT TISSUE,1.09 ± 0.053,0.968 ± 0.032,1.06 ± 0.047,0.912 ± 0.048,0.788 ± 0.19,0.632 ± 0.01,1.3 ± 0.11,1.51 ± 0.22,1.26 ± 0.093,1.17 ± 0.053,1.13 ± 0.074,0.98 ± 0.036,0.765 ± 0.083,0.576 ± 0.034,0.405 ± 0.037,0.385 ± 0.058
S68 BREAST,1.06 ± 0.15,1.14 ± 0.31,1.06 ± 0.29,1.23 ± 0.21,0.87 ± 0.13,0.749 ± 0.034,0.656 ± 0.16,0.465 ± 0.061,1.25 ± 0.083,1.04 ± 0.045,1.04 ± 0.28,1.15 ± 0.047,1.26 ± 0.41,1.14 ± 0.27,0.848 ± 0.25,0.822 ± 0.14
SAOS2 BONE,1.04 ± 0.073,1.05 ± 0.037,1.11 ± 0.046,1.09 ± 0.02,0.826 ± 0.096,0.8 ± 0.17,0.758 ± 0.11,0.598 ± 0.2,1.18 ± 0.037,1.18 ± 0.056,1.21 ± 0.098,1.19 ± 0.082,1.27 ± 0.061,1.13 ± 0.059,1.14 ± 0.12,1.08 ± 0.018
SCC003 HEADNECK,1.02 ± 0.082,1.05 ± 0.042,1.03 ± 0.024,0.965 ± 0.044,1.02 ± 0.12,0.881 ± 0.036,0.6943 ± 0.005,0.87 ± 0.13,1.11 ± 0.067,1.17 ± 0.03,1.16 ± 0.032,1.09 ± 0.021,1.15 ± 0.096,1.16 ± 0.1,1.19 ± 0.049,1.09 ± 0.069
SCC36 HEADNECK,0.92 ± 0.093,0.872 ± 0.052,1.06 ± 0.13,1.05 ± 0.031,0.739 ± 0.095,0.775 ± 0.029,0.624 ± 0.076,0.529 ± 0.047,1.08 ± 0.18,1.03 ± 0.054,1.15 ± 0.028,1.13 ± 0.056,1.14 ± 0.14,1.12 ± 0.061,0.897 ± 0.035,0.924 ± 0.11
SCC47 HEADNECK,1.12 ± 0.088,1.14 ± 0.026,1.22 ± 0.15,1.1 ± 0.043,1.02 ± 0.048,0.945 ± 0.051,0.854 ± 0.047,0.956 ± 0.057,1.14 ± 0.033,1.13 ± 0.13,1.23 ± 0.09,1.25 ± 0.05,1.24 ± 0.087,1.2 ± 0.055,1.1 ± 0.053,1.14 ± 0.12
SCC90 HEADNECK,0.968 ± 0.033,0.982 ± 0.096,1 ± 0.039,1.012 ± 0.009,0.928 ± 0.087,0.86 ± 0.1,0.908 ± 0.064,0.95 ± 0.08,1.05 ± 0.077,1.05 ± 0.11,1.14 ± 0.12,1.14 ± 0.073,1.09 ± 0.046,1.11 ± 0.097,0.949 ± 0.05,0.853 ± 0.087

# Reference: the supplement of paper PMC6045584
